Test results from patent US20220226265A1, “METHODS OF CONTROLLING MYOCARDIAL BLOOD FLOW” (UNIVERSITY OF LOUISVILLE RESEARCH FOUNDATION, INC., priority 2021, published 2022).

Tested on: wild type and Kvβ-null mice
Test: Echocardiographic cardiac function during intravenous norepinephrine infusion
Assay type: in vivo, mouse
Settings: for ejection fraction: after 1 min of 5 μg/kg·min−1 norepinephrine infusion
Description: In vivo measurements of cardiac function and myocardial blood flow: Mice were anesthetized with 3% isoflurane and supplemental O2, administered (1 L·min^−1) in a small induction chamber. After induction, the mice were placed on a controlled heating table in a supine position. Anesthesia was maintained throughout the procedure by delivery of 1-2% isoflurane and supplemental O2 (0.5 L·min^−1). The extremities were secured to the surgical table by tape and a lubricated probe was inserted rectally to monitor body temperature. The chest, neck, and hind limb hair were then removed using a depilatory agent, the skin was rinsed with warm water, and the neck area was disinfected with 70% ethanol/betadine and an incision (10-15 mm) was made at the right side of the neck. For infusion of contrast agent and drugs, the jugular vein was isolated using blunt forceps and catheterized with sterilized PE-50 polyethylene tubing (pre-filled with heparinized saline; 50 U·ml^−1). The jugular vein catheter was then secured in place with two sutures. For continuous measurement of arterial blood pressure, a small incision was made on the hind limb and the femoral artery was isolated and cannulated with a 1.2 F pressure catheter (SciSense, Transonic Systems, Inc., Ithaca, N.Y., USA) connected to a PowerLab data acquisition system (ADInstruments, Colorado Springs, Colo., USA) through a SP200 pressure interface unit designed to measure arterial blood pressure and heart rate. After cannulation, the pressure catheter was advanced 10 mm into the abdominal aorta.
Ultrasound gel was centrifuged in a 60 mL syringe (1500×g, 10 min) to remove air bubbles, warmed to 37° C., and applied to the chest. Cardiac function was measured by M-mode transthoracic echocardiographic imaging of the parasternal short axis view, mid-papillary level using a Vevo 2100 high resolution echocardiography imaging system (FujiFilm VisualSonics, Toronto, ON, Canada). Contrast echocardiography was performed by using Siemens ultrasound imaging system (Sequoia Acuson C512; Siemens Medical Systems USA Inc., Mountain View, Calif.) with a high-frequency linear-array probe (15L8) held in place by a 3D railing system. For myocardial contrast echocardiography (MCE), we administered lipid-shelled microbubbles, which were freshly prepared by sonication of a decafluorobutane gas-saturated aqueous suspension of distearoylphosphatidylcholine (2 mg/mL) and polyoxyethylene-40-stearate (1 mg/mL). The contrast agent was intravenously infused via the jugular vein catheter at a rate of ˜5×10^5 microbubbles·min-1 (20 μl·min^−1) and MCE was performed by administering a multi-pulse contrast-specific pulse sequence to detect non-linear microbubble contrast signal at low mechanical index (MI=0.18-0.25). Data were acquired during and after a 1.9 MI pulse sequence to destruct microbubbles within the acoustic field, followed by imaging of replenished contrast signal.
Measurements of cardiac function, myocardial perfusion, and arterial blood pressure were performed at baseline, after administration of hexamethonium (5 mg·kg^−1, i.v.), and following successive doses of norepinephrine (0.5, 1.0, 2.5, and 5.0 μg·kg^−1·min^−1; 3 min duration each dose, followed by 3-5 min washout). […] All data analyses and calculations of cardiac workload (double product of mean arterial pressure and heart rate), cardiac function, myocardial blood flow, and mean arterial pressure were performed offline. For pressure measurements, we used Lab Chart 8 software (ADInstruments, Colorado Springs, Colo., USA). Left ventricular volume at end diastole (LVEDV) and end systole (LVESV), as well left ventricular internal diameter at end diastole (LVID,d) and end systole (LVID,s) were measured at steady state after drug infusions. […]

[1] = NE 0.5 μg/kg·min−1 i.v., Kvβ1.1−/− mice
[2] = NE 0.5 μg/kg·min−1 i.v., Kvβ2−/− mice
[3] = NE 0.5 μg/kg·min−1 i.v., SM22α-rtTA mice
[4] = NE 0.5 μg/kg·min−1 i.v., SM22α-rtTA:TRE-Kvβ1 mice
[5] = NE 0.5 μg/kg·min−1 i.v., Wild type (129SvEv) mice
[6] = NE 0.5 μg/kg·min−1 i.v., Wild type (C57B16N) mice
[7] = NE 1 μg/kg·min−1 i.v., Kvβ1.1−/− mice
[8] = NE 1 μg/kg·min−1 i.v., Kvβ2−/− mice
[9] = NE 1 μg/kg·min−1 i.v., SM22α-rtTA mice
[10] = NE 1 μg/kg·min−1 i.v., SM22α-rtTA:TRE-Kvβ1 mice
[11] = NE 1 μg/kg·min−1 i.v., Wild type (129SvEv) mice
[12] = NE 1 μg/kg·min−1 i.v., Wild type (C57B16N) mice
[13] = NE 2.5 μg/kg·min−1 i.v., Kvβ1.1−/− mice
[14] = NE 2.5 μg/kg·min−1 i.v., Kvβ2−/− mice
[15] = NE 2.5 μg/kg·min−1 i.v., SM22α-rtTA mice
[16] = NE 2.5 μg/kg·min−1 i.v., SM22α-rtTA:TRE-Kvβ1 mice
[17] = NE 2.5 μg/kg·min−1 i.v., Wild type (129SvEv) mice
[18] = NE 2.5 μg/kg·min−1 i.v., Wild type (C57B16N) mice
[19] = NE 5.0 μg/kg·min−1 i.v., Kvβ1.1−/− mice
[20] = NE 5.0 μg/kg·min−1 i.v., Kvβ2−/− mice
[21] = NE 5.0 μg/kg·min−1 i.v., SM22α-rtTA mice
[22] = NE 5.0 μg/kg·min−1 i.v., SM22α-rtTA:TRE-Kvβ1 mice
[23] = NE 5.0 μg/kg·min−1 i.v., Wild type (129SvEv) mice
[24] = NE 5.0 μg/kg·min−1 i.v., Wild type (C57B16N) mice

## NC[C@H](O)c1ccc(O)c(O)c1 [norepinephrine]
[1]
  EDV (left ventricular end diastolic volume): 53.5 ± 4.9 µL
  EF (ejection fraction): 61.4 ± 4.2%
  ESV (left ventricular end systolic volume): 21.3 ± 3.9 µL
  FS (fractional shortening): 32.5 ± 2.8%
  SV (stroke volume): 32.2 ± 1.8 µL
[2]
  EDV (left ventricular end diastolic volume): 48.3 ± 2.7 µL
  EF (ejection fraction): 71.9 ± 3.3%
  ESV (left ventricular end systolic volume): 13.6 ± 1.6 µL
  FS (fractional shortening): 40.7 ± 2.8%
  SV (stroke volume): 34.7 ± 2.4 µL
[3]
  EDV (left ventricular end diastolic volume): 43.6 ± 2.9 µL
  EF (ejection fraction): 82.3 ± 3.3%
  ESV (left ventricular end systolic volume): 8.1 ± 2.0 µL
  FS (fractional shortening): 50.9 ± 3.6%
  SV (stroke volume): 35.4 ± 1.6 µL
[4]
  EDV (left ventricular end diastolic volume): 45.9 ± 3.8 µL
  EF (ejection fraction): 62.7 ± 6.0%
  ESV (left ventricular end systolic volume): 17.7 ± 3.6 µL
  FS (fractional shortening): 33.9 ± 4.1%
  SV (stroke volume): 28.2 ± 2.7 µL
[5]
  EDV (left ventricular end diastolic volume): 50.5 ± 7.8 µL
  EF (ejection fraction): 63.5 ± 2.5%
  ESV (left ventricular end systolic volume): 19.4 ± 3.7 µL
  FS (fractional shortening): 34.2 ± 1.9%
  SV (stroke volume): 31.2 ± 4.2 µL
[6]
  EDV (left ventricular end diastolic volume): 57.8 ± 2.3 µL
  EF (ejection fraction): 71.64 ± 2.2%
  ESV (left ventricular end systolic volume): 16.37 ± 1.4 µL
  FS (fractional shortening): 40.48 ± 2.0%
  SV (stroke volume): 41.46 ± 2.3 µL
[7]
  EDV (left ventricular end diastolic volume): 47.6 ± 8.1 µL
  EF (ejection fraction): 70.9 ± 3.1%
  ESV (left ventricular end systolic volume): 14.1 ± 3.4 µL
  FS (fractional shortening): 40.1 ± 2.4%
  SV (stroke volume): 33.5 ± 5.2 µL
[8]
  EDV (left ventricular end diastolic volume): 48.7 ± 4.6 µL
  EF (ejection fraction): 73.1 ± 1.8%
  ESV (left ventricular end systolic volume): 13.3 ± 1.8 µL
  FS (fractional shortening): 41.4 ± 1.6%
  SV (stroke volume): 42.7 ± 8.2 µL
[9]
  EDV (left ventricular end diastolic volume): 49.4 ± 2.9 µL
  EF (ejection fraction): 80.6 ± 4.2%
  ESV (left ventricular end systolic volume): 10.0 ± 2.6 µL
  FS (fractional shortening): 49.6 ± 4.3%
  SV (stroke volume): 39.4 ± 1.8 µL
[10]
  EDV (left ventricular end diastolic volume): 46.9 ± 4.9 µL
  EF (ejection fraction): 74.2 ± 3.9%
  ESV (left ventricular end systolic volume): 12.7 ± 3.2 µL
  FS (fractional shortening): 42.7 ± 3.3%
  SV (stroke volume): 34.2 ± 2.0 µL
[11]
  EDV (left ventricular end diastolic volume): 46.7 ± 7.4 µL
  EF (ejection fraction): 70.7 ± 5.3%
  ESV (left ventricular end systolic volume): 14.7 ± 4.3 µL
  FS (fractional shortening): 40.1 ± 4.6%
  SV (stroke volume): 32.0 ± 3.7 µL
[12]
  EDV (left ventricular end diastolic volume): 61.6 ± 3.2 µL
  EF (ejection fraction): 72.40 ± 1.2%
  ESV (left ventricular end systolic volume): 17.12 ± 1.3 µL
  FS (fractional shortening): 40.97 ± 1.0%
  SV (stroke volume): 44.52 ± 2.3 µL
[13]
  EDV (left ventricular end diastolic volume): 41.5 ± 8.8 µL
  EF (ejection fraction): 78.2 ± 2.0%
  ESV (left ventricular end systolic volume): 9.4 ± 2.7 µL
  FS (fractional shortening): 46.0 ± 1.8%
  SV (stroke volume): 32.1 ± 6.1 µL
[14]
  EDV (left ventricular end diastolic volume): 52.8 ± 3.5 µL
  EF (ejection fraction): 70.1 ± 2.6%
  ESV (left ventricular end systolic volume): 15.7 ± 1.6 µL
  FS (fractional shortening): 39.0 ± 2.2%
  SV (stroke volume): 37.1 ± 2.8 µL
[15]
  EDV (left ventricular end diastolic volume): 51.5 ± 2.8 µL
  EF (ejection fraction): 77.4 ± 5.1%
  ESV (left ventricular end systolic volume): 12.2 ± 3.1 µL
  FS (fractional shortening): 46.8 ± 4.8%
  SV (stroke volume): 39.3 ± 2.1 µL
[16]
  EDV (left ventricular end diastolic volume): 47.5 ± 5.5 µL
  EF (ejection fraction): 74.2 ± 5.7%
  ESV (left ventricular end systolic volume): 13.2 ± 4.3 µL
  FS (fractional shortening): 43.1 ± 4.8%
  SV (stroke volume): 34.3 ± 1.4 µL
[17]
  EDV (left ventricular end diastolic volume): 48.8 ± 6.0 µL
  EF (ejection fraction): 67.9 ± 2.7%
  ESV (left ventricular end systolic volume): 16.0 ± 2.7 µL
  FS (fractional shortening): 37.4 ± 2.1%
  SV (stroke volume): 32.8 ± 3.6 µL
[18]
  EDV (left ventricular end diastolic volume): 62.8 ± 3.7 µL
  EF (ejection fraction): 72.88 ± 1.8%
  ESV (left ventricular end systolic volume): 17.22 ± 1.7 µL
  FS (fractional shortening): 41.47 ± 1.5%
  SV (stroke volume): 45.63 ± 2.6 µL
[19]
  EDV (left ventricular end diastolic volume): 45.7 ± 11.9 µL
  EF (ejection fraction): 79.1 ± 2.7%
  ESV (left ventricular end systolic volume): 10.4 ± 3.4 µL
  FS (fractional shortening): 47.1 ± 2.4%
  SV (stroke volume): 35.3 ± 8.5 µL
[20]
  EDV (left ventricular end diastolic volume): 54.6 ± 4.5 µL
  EF (ejection fraction): 67.5 ± 3.8%
  ESV (left ventricular end systolic volume): 18.5 ± 3.1 µL
  FS (fractional shortening): 37.3 ± 3.0%
  SV (stroke volume): 36.1 ± 2.3 µL
[21]
  EDV (left ventricular end diastolic volume): 56.9 ± 3.9 µL
  EF (ejection fraction): 77.7 ± 5.8%
  ESV (left ventricular end systolic volume): 13.4 ± 3.9 µL
  FS (fractional shortening): 48.1 ± 6.0%
  SV (stroke volume): 43.5 ± 3.1 µL
[22]
  EDV (left ventricular end diastolic volume): 49.3 ± 5.7 µL
  EF (ejection fraction): 69.9 ± 5.0%
  ESV (left ventricular end systolic volume): 15.6 ± 3.9 µL
  FS (fractional shortening): 39.3 ± 4.2%
  SV (stroke volume): 33.7 ± 2.6 µL
[23]
  EDV (left ventricular end diastolic volume): 56.4 ± 5.0 µL
  EF (ejection fraction): 69.1 ± 2.4%
  ESV (left ventricular end systolic volume): 17.3 ± 1.6 µL
  FS (fractional shortening): 38.3 ± 1.9%
  SV (stroke volume): 39.1 ± 4.1 µL
[24]
  EDV (left ventricular end diastolic volume): 66.1 ± 4.4 µL
  EF (ejection fraction): 73.65 ± 2.4%
  ESV (left ventricular end systolic volume): 17.85 ± 2.3 µL
  FS (fractional shortening): 42.39 ± 2.1%
  SV (stroke volume): 48.26 ± 2.7 µL
Kvβ2−/− mice
  ejection fraction: 71±1.7%
WT animals
  ejection fraction: 84±2.2%
